Like-named read-outs stand apart in the source and are kept apart here.
Tested on: M. tuberculosis H37Rv (ATCC 27294)
Assay: In vitro anti-tuberculosis screening, BACTEC 460 radiometric system, percent inhibition of growth
Type: cell-based, Mycobacterium tuberculosis
Conditions: for inhibition at 12.5 µg/mL: Mycobacterium tuberculosis
[1] = Mtb H37Rv, 12.5 μg/mL, BACTEC 12B medium
[2] = Mtb H37Rv, drug concentration 12.5 μg/mL
[3] = Mtb H37Rv, 12.5 μg/mL, BACTEC 12B medium, read-out: Activity % Inhibition at 12.5 μg/mL (biflavonoids)
[4] = Mtb H37Rv, drug concentration 12.5 μg/mL, read-out: inhibition of the growth of Mtb

O=C(/C=C/c1ccccc1)c1cccc(Br)c1O [Compound 32]
Activity % inhibition at 12.5 μg/mL (chalcones) [1]: 79%
inhibition of the growth of Mtb [2]: 79%

COc1ccc([C@@H]2CC(=O)c3c(OC)cc(OC)c([C@H]4C(=O)c5c(OC)cc(OC)cc5O[C@@H]4c4ccc(OC)cc4)c3O2)cc1 [Compound 153, GB-1a hexamethylether]
Activity % Inhibition at 12.5 μg/mL (biflavonoids) [1]: 87%
inhibition of the growth of Mtb [2]: 87%

Nc1ccc(C(=O)/C=C/c2cccnc2N)cc1 [Compound 66]
Activity % inhibition at 12.5 μg/mL (chalcone-like compounds) [1]: 7%

COc1ccc(-c2cc(=O)c3ccc(OC)cc3o2)cc1 [Compound 119]
Activity % Inhibition at 12.5 μg/mL (flavones) [1]: 0%

O=C1CC(c2ccc(O)cc2)Oc2cc(O)c(-c3c(O)cc(O)c4c3OC(c3ccc(O)cc3)CC4=O)c(O)c21 (centres unmarked) [Compound 168, Rhusflavanone]
Activity % Inhibition at 12.5 μg/mL (biflavonoids) [1]: 0%

O=c1c(O)c(-c2ccccc2)oc2cc(Cl)ccc12 [Compound 81]
Activity % Inhibition at 12.5 μg/mL (flavones) [1]: 58%

COc1ccc(-c2oc3cc(OC)cc(OC)c3c(=O)c2-c2c(-c3ccc(OC)cc3)oc3cc(OC)cc(OC)c3c2=O)cc1 [Compound 159, 3-3″-Biapigenin hexamethylether]
anti-TB activity in words (Mtb H37Rv, 12.5 μg/mL): completely devoid of activity
Activity % Inhibition at 12.5 μg/mL (biflavonoids) [1]: 0%

O=C1CC(c2cccc(Br)c2)Oc2ccccc21 (centres unmarked) [Compound 134]
Activity % Inhibition at 12.5 μg/mL (flavanones) [1]: 73%
inhibition of the growth of Mtb [2]: 73%

COc1ccc(/C=C/C(=O)c2cc(Cl)ccc2O)cc1 [Compound 29]
Activity % inhibition at 12.5 μg/mL (chalcones) [1]: 20%
inhibition of the growth of Mtb [2]: 20%

O=c1cc(-c2ccc(O)c(-c3c(O)cc(O)c4c(=O)cc(-c5ccc(O)cc5)oc34)c2)oc2cc(O)cc(O)c12 [Compound 164, Amentoflavone]
inhibition at 12.5 µg/mL [3]: 0%

COc1ccc(/C=C/C(=O)c2ccccc2F)cc1 [Compound 20]
Activity % inhibition at 12.5 μg/mL (chalcones) [1]: 82%

COc1ccc(C2CC(=O)c3ccc(I)cc3O2)cc1 (centres unmarked) [Compound 149]
Activity % Inhibition at 12.5 μg/mL (flavanones) [1]: 0%

O=C(/C=C/c1ccco1)c1ccc(Br)cc1O [Compound 63]
Activity % inhibition at 12.5 μg/mL (chalcone-like compounds) [1]: 17%

COc1cc(OC)c2c(=O)cc(-c3ccc(O)cc3)oc2c1 [Compound 132]
Activity % Inhibition at 12.5 μg/mL (flavones) [1]: 0%

COc1ccc(C=CC(=O)c2ccc(F)cc2O)cc1 [Compound 22]
Activity % inhibition at 12.5 μg/mL (chalcones) [1]: 63%

COc1cc(OC)c2c(c1)OC(c1cc(OC)c(OC)c(OC)c1)C(Br)(Br)C2=O (centres unmarked) [Compound 140]
Activity % Inhibition at 12.5 μg/mL (flavanones) [1]: 16%

Nc1ccc(C(=O)/C=C/c2ccccc2)cc1 [Compound 13]
Activity % inhibition at 12.5 μg/mL (chalcones) [1]: 5%

O=c1c(O)c(-c2ccccc2)oc2ccc(I)cc12 [Compound 79]
Activity % Inhibition at 12.5 μg/mL (flavones) [1]: 64%

COc1ccc2c(c1)OC(c1cccc([N+](=O)[O-])c1)CC2=O (centres unmarked) [Compound 147]
Activity % Inhibition at 12.5 μg/mL (flavanones) [1]: 0%

O=c1cc(-c2ccc(O)c(-c3c(O)cc4oc(-c5ccc(O)cc5)cc(=O)c4c3O)c2)oc2cc(O)cc(O)c12 [Compound 166, Robustaflavone]
inhibition at 12.5 µg/mL [3]: 0%

6-2′′′-Biapigenin [Compound 158]
Activity % Inhibition at 12.5 μg/mL (biflavonoids) [1]: 1%

O=c1cc(-c2cccc(-c3ccc4c(=O)cc(-c5ccccc5)oc4c3)c2)oc2ccccc12 [Compound 162, 7-3′′′-Biflavone]
Activity % Inhibition at 12.5 μg/mL (biflavonoids) [1]: 0%

COc1ccc(-c2oc3ccccc3c(=O)c2O)cc1 [Compound 88, 4′-methoxyflavonol]
increase in activity compared to 92 (Mtb H37Rv, 12.5 μg/mL): 10%
inhibition at 12.5 µg/mL (Mtb H37Rv, 12.5 μg/mL, BACTEC 12B medium, read-out: Activity % Inhibition at 12.5 μg/mL (flavones)): 48%

COc1ccc(-c2cc(=O)c3ccc(F)cc3o2)cc1 [Compound 118]
Activity % Inhibition at 12.5 μg/mL (flavones) [1]: 0%

COc1ccc(/C=C/C(=O)c2ccc(OC)cc2O)cc1 [Compound 9]
Activity % inhibition at 12.5 μg/mL (chalcones) [1]: 32%

O=c1cc(-c2ccccc2)oc2cc(Br)ccc12 [Compound 106]
anti-TB activity in words (Mtb H37Rv, 12.5 μg/mL): weakly active or inactive
Activity % Inhibition at 12.5 μg/mL (flavones) [1]: 15%

O=C(/C=C/c1ccc(I)cc1)c1ccccc1O [Compound 46]
Activity % inhibition at 12.5 μg/mL (chalcones) [1]: 21%
inhibition of the growth of Mtb [2]: 21%

O=C1CC(c2ccccc2)Oc2cc(Br)ccc21 (centres unmarked) [Compound 136, 7-bromo-flavanone]
inhibition at 12.5 µg/mL (Mtb H37Rv, 12.5 μg/mL, BACTEC 12B medium, read-out: Activity % Inhibition at 12.5 μg/mL (flavanones)): 53%
inhibition at 12.5 µg/mL [4]: 53%

O=C(/C=C/c1cccc(I)c1)c1cccc(Br)c1O [Compound 51, 3′-bromo-2′-hydroxy-3-iodochalcone]
inhibition at 12.5 µg/mL [4]: 0%

COc1ccc(-c2oc3cc(I)ccc3c(=O)c2O)cc1 [Compound 91]
Activity % Inhibition at 12.5 μg/mL (flavones) [1]: 43%

O=c1c(O)c(-c2cccc(Br)c2)oc2ccccc12 [Compound 80]
Activity % Inhibition at 12.5 μg/mL (flavones) [1]: 60%

Suceedaneaflavanone [Compound 169]
Activity % Inhibition at 12.5 μg/mL (biflavonoids) [1]: 0%

O=c1cc(-c2ccccc2)oc2ccc(I)cc12 [Compound 124]
anti-TB activity in words (Mtb H37Rv, 12.5 μg/mL): weakly active or inactive
Activity % Inhibition at 12.5 μg/mL (flavones) [1]: 0%

O=C(/C=C/c1cc2ccccc2[nH]1)c1ccncc1 [Compound 64]
Activity % inhibition at 12.5 μg/mL (chalcone-like compounds) [1]: 12%

COc1ccc(-c2cc(=O)c3c(OC)cc(OC)c(I)c3o2)cc1 [Compound 125]
Activity % Inhibition at 12.5 μg/mL (flavones) [1]: 0%

COc1cc(O)c(C(=O)/C=C/c2cc(OC)c(OC)c(OC)c2)c(O)c1 [Compound 15]
Activity % inhibition at 12.5 μg/mL (chalcones) [1]: 0%

O=c1cc(-c2ccc(I)cc2)oc2ccccc12 [Compound 84]
anti-TB activity in words (Mtb H37Rv, 12.5 μg/mL): weakly active or inactive
Activity % Inhibition at 12.5 μg/mL (flavones) [1]: 51%
inhibition of the growth of Mtb [2]: 51%

O=C(O)c1ccc(O)c(C(=O)C=Cc2cccc(I)c2)c1 [Compound 50]
Activity % inhibition at 12.5 μg/mL (chalcones) [1]: 0%
inhibition of the growth of Mtb [2]: 0%

CC(=O)Oc1ccc(C2Oc3cc(OC(C)=O)cc(OC(C)=O)c3C(=O)C2c2c(OC(C)=O)cc(OC(C)=O)c3c(=O)cc(-c4ccc(OC(C)=O)c(OC(C)=O)c4)oc23)cc1 (centres unmarked) [Compound 175, Morelloflavone heptaacetate]
Activity % Inhibition at 12.5 μg/mL (biflavonoids) [1]: 0%

O=C(/C=C/c1cccc(O)c1)c1ccccc1O [Compound 10]
Activity % inhibition at 12.5 μg/mL (chalcones) [1]: 18%

O=c1cc(-c2cccc(Cl)c2)oc2ccccc12 [Compound 121]
anti-TB activity in words (Mtb H37Rv, 12.5 μg/mL): weakly active or inactive
Activity % Inhibition at 12.5 μg/mL (flavones) [1]: 0%
inhibition of the growth of Mtb [2]: 0%

O=c1cc(-c2ccccc2)oc2c(Br)cccc12 [Compound 77]
Activity % Inhibition at 12.5 μg/mL (flavones) [1]: 66%

O=c1c(O)c(-c2ccccc2)oc2c(F)cccc12 [Compound 90]
Activity % Inhibition at 12.5 μg/mL (flavones) [1]: 43%

O=C1CC(c2ccccc2)Oc2cc(F)ccc21 (centres unmarked) [Compound 143]
Activity % Inhibition at 12.5 μg/mL (flavanones) [1]: 7%

O=C1CC(c2ccccc2)Oc2ccc(I)cc21 (centres unmarked) [Compound 139]
Activity % Inhibition at 12.5 μg/mL (flavanones) [1]: 27%

O=C1CC(c2ccccc2)Oc2ccc(Cl)cc21 (centres unmarked) [Compound 138]
Activity % Inhibition at 12.5 μg/mL (flavanones) [1]: 30%

COc1ccc(-c2cc(=O)c3c(OC)cc(OC)c([C@@H]4C(=O)c5c(OC)cc(OC)cc5O[C@H]4c4ccc(OC)cc4)c3o2)cc1 [Compound 152, Volkensiflavone hexamethylether]
Activity % Inhibition at 12.5 μg/mL (biflavonoids) [1]: 95%
inhibition of the growth of Mtb [2]: 95%

O=c1cc(-c2cccc(-c3cccc4c(=O)cc(-c5ccccc5)oc34)c2)oc2ccccc12 [Compound 155, 3′-8′′-Biflavone]
anti-TB activity in words (Mtb H37Rv, 12.5 μg/mL): moderate activity
Activity % Inhibition at 12.5 μg/mL (biflavonoids) [1]: 49%

O=c1cc(-c2ccccc2O)oc2ccccc12 [Compound 116]
Activity % Inhibition at 12.5 μg/mL (flavones) [1]: 1%

COc1ccc(/C=C/C(=O)c2c(O)cccc2OC)cc1 [Compound 2]
Activity % inhibition at 12.5 μg/mL (chalcones) [1]: 75%

O=C(/C=C/c1ccccc1)c1ccccc1O [Compound 5, 2′-hydroxychalcone]
inhibition at 12.5 µg/mL (read-out: Activity % inhibition at 12.5 μg/mL (chalcones), Mtb H37Rv, 12.5 μg/mL, BACTEC 12B medium): 61%
inhibition at 12.5 µg/mL (read-out: inhibition of the growth of Mtb, Mtb H37Rv, drug concentration 12.5 μg/mL): 61%

COc1ccc(-c2cc(=O)c3cc(I)ccc3o2)cc1 [Compound 107]
Activity % Inhibition at 12.5 μg/mL (flavones) [1]: 15%

O=C1C[C@@H](c2ccc(O)c(O)c2)Oc2c1c(O)cc(O)c2[C@H]1C(=O)c2c(O)cc(O)cc2O[C@@H]1c1ccc(O)cc1 [Compound 172, GB-2a]
Activity % Inhibition at 12.5 μg/mL (biflavonoids) [1]: 0%

COc1ccc2c(=O)c(Br)c(-c3ccc(Cl)cc3)oc2c1 [Compound 103]
Activity % Inhibition at 12.5 μg/mL (flavones) [1]: 19%

COc1ccc(/C=C/C(=O)c2cc(I)ccc2O)cc1 [Compound 48]
Activity % inhibition at 12.5 μg/mL (chalcones) [1]: 0%
inhibition of the growth of Mtb [2]: 0%

O=C(/C=C/c1ccccc1)c1cccc2ccccc12 [Compound 61]
Activity % inhibition at 12.5 μg/mL (chalcone-like compounds) [1]: 37%

O=c1cc(-c2ccccc2)oc2c(I)cccc12 [Compound 114]
anti-TB activity in words (Mtb H37Rv, 12.5 μg/mL): weakly active or inactive
Activity % Inhibition at 12.5 μg/mL (flavones) [1]: 5%

COc1c(-c2ccccc2)oc2ccc(Br)cc2c1=O [Compound 89]
Activity % Inhibition at 12.5 μg/mL (flavones) [1]: 44%

COc1ccc(C=CC(=O)c2ccc(Cl)cc2O)cc1 [Compound 28]
Activity % inhibition at 12.5 μg/mL (chalcones) [1]: 57%
inhibition of the growth of Mtb [2]: 57%

Nc1ccc(O)c(C(=O)/C=C/c2ccccc2)c1 [Compound 12]
Activity % inhibition at 12.5 μg/mL (chalcones) [1]: 6%
inhibition of the growth of Mtb [2]: 6%

O=c1c(O)c(-c2ccccc2)oc2ccc(Br)cc12 [Compound 82]
Activity % Inhibition at 12.5 μg/mL (flavones) [1]: 58%

COc1ccc(-c2oc3ccc(C(=O)O)cc3c(=O)c2O)cc1 [Compound 130]
Activity % Inhibition at 12.5 μg/mL (flavones) [1]: 0%

CC(=O)Nc1cccc(/C=C/C(=O)c2ccccc2O)c1 [Compound 17]
Activity % inhibition at 12.5 μg/mL (chalcones) [1]: 0%

COc1cc(OC)c2c(c1)OC(c1cc(OC)c(OC)c(OC)c1)CC2=O (centres unmarked) [Compound 144]
Activity % Inhibition at 12.5 μg/mL (flavanones) [1]: 0%

From patent US6677350B1, “Beta-fluoroethyl thiourea compounds and use” (priority 1999, dated 2004)
